Assay [1] has as its target T1, Mitogen-activated protein kinase 14 (Homo sapiens, UniProt Q16539). As to the kind of experiment: Inhibition of p38alpha.
In assay [2] the target is T1, Mitogen-activated protein kinase 14. The assay is described as follows: Inhibition of p38-alpha at 10 uM by whole blood assay.
The target is the same in assay [3]. As to the kind of experiment: Inhibition of p38-alpha by whole blood assay.
Assay [4] shares this target. As to the kind of experiment: Inhibition of p38-alpha at 100 nM.
Assay [5] shares this target. The assay is described as follows: Inhibition of p38-alpha at 1250 nM.
Assay [6] has the same target. As to the kind of experiment: Inhibition of p38-alpha at 1000 nM.

Structures are written as SMILES.

By IC50 is commonly meant the concentration needed to halve the response being measured. Usually inhibition stands for the share of the control response that was lost under treatment. High values mean a response far below the control, low ones a response near the control.

T1 sequence (Q16539 whole entry): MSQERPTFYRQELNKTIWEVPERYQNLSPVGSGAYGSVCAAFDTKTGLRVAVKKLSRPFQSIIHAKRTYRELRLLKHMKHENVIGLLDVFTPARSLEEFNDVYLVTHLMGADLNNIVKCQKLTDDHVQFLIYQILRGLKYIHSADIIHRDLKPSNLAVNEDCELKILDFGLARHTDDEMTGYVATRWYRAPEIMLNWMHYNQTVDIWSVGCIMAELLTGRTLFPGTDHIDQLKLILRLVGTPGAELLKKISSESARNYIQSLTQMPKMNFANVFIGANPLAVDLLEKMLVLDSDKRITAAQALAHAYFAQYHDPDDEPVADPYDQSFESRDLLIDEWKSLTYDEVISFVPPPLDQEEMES

As to `COC1Cc2c(-c3ccccc3Cl)cccc2N(c2c(Cl)cccc2Cl)C1=O` (stereo unspecified), the concentration for half-maximal inhibition (IC50) entry in assay [1] is on record as “Not Active”. Regarding `COc1cc(-c2ccccc2Cl)c2ccc(=O)n(-c3c(Cl)cccc3Cl)c2c1`, the IC50 in assay [1] (read-out: IC50) is 1.5 nM. The inhibition in assay [2] came out at 75%. Consider `NCCC(=O)NCCOc1cc(-c2ccccc2Cl)c2ccc(=O)n(-c3c(Cl)cccc3Cl)c2c1`, for which the IC50 in assay [1] (read-out: IC50) was 0.57 nM; in assay [3], 130 nM.

For `O=c1ccc2c(-c3ccccn3)cccc2n1-c1c(Cl)cccc1Cl`, in assay [1] (read-out: IC50), the IC50 was determined as 350 nM. As for `[N-]=[N+]=NC1Cc2c(-c3ccccc3Cl)cccc2N(c2c(Cl)cccc2Cl)C1=O` (stereo unspecified), the inhibition in assay [4] worked out at 15%. On to `COc1cc(-c2ccccc2Cl)c2c(c1)N(c1c(Cl)cccc1Cl)C(=O)C(OC)C2` (stereo unspecified), for which, in assay [5], the inhibition came out at 63%.

With `COc1cc(-c2ccccc2Cl)c2cc(OC)c(=O)n(-c3c(Cl)cccc3Cl)c2c1`, the inhibition in assay [4] stood at 29%. Turning to `O=c1ccc2c(-c3ccccc3Cl)cc(O)cc2n1-c1c(Cl)cccc1Cl`, the IC50 in assay [1] (read-out: IC50) came out at 0.7 nM. Same read-out and setting: next, `O=c1ccc2c(-c3ccccc3Cl)cccc2n1-c1c(Cl)cccc1Cl`: 6 nM. As for `NC1(C(=O)NCCOc2cc(-c3ccccc3Cl)c3ccc(=O)n(-c4c(Cl)cccc4Cl)c3c2)CC1`, the IC50 in assay [1] (read-out: IC50) was 1.5 nM; in assay [3] it was 1010 nM. With `NCC(=O)NCCOc1cc(-c2ccccc2Cl)c2ccc(=O)n(-c3c(Cl)cccc3Cl)c2c1`, the IC50 in assay [1] (read-out: IC50) was 0.3 nM; in assay [3] it was 80 nM. `O=c1ccc2c(-c3ccccc3)cccc2n1-c1c(Cl)cccc1Cl`: the IC50 in assay [1] (read-out: IC50) was found to be 13.4 nM. Consider `O=c1ccc2c(-c3cccnc3)cccc2n1-c1c(Cl)cccc1Cl`, for which the IC50 in assay [1] (read-out: IC50) came to 460 nM. As to `NC(CO)C(=O)NCCOc1cc(-c2ccccc2Cl)c2ccc(=O)n(-c3c(Cl)cccc3Cl)c2c1` (stereo unspecified), the IC50 in assay [1] (read-out: IC50) amounted to 0.5 nM; in assay [3], 200 nM. Take `O=C1C(O)Cc2c(-c3ccccc3Cl)cccc2N1c1c(Cl)cccc1Cl` (stereo unspecified): in assay [1] (read-out: IC50), the IC50 stood at 27.5 nM. Take `NC1Cc2c(-c3ccccc3Cl)cccc2N(c2c(Cl)cccc2Cl)C1=O` (stereo unspecified): in assay [1], the IC50 entry is reported as “Not Active”. For `O=C1C(O)Cc2c(-c3ccccc3Cl)cc(O)cc2N1c1c(Cl)cccc1Cl` (stereo unspecified), the IC50 in assay [1] (read-out: IC50) was 4 nM. Same read-out and setting: then `COc1cc(-c2ccccc2Cl)c2cc(O)c(=O)n(-c3c(Cl)cccc3Cl)c2c1`, with 28 nM. As to `O=C(NCCOc1cc(-c2ccccc2Cl)c2ccc(=O)n(-c3c(Cl)cccc3Cl)c2c1)[C@H]1CCCN1`, the IC50 was found to be 0.9 nM in assay [1] (read-out: IC50) and 73 nM in assay [3]. The molecule `O=c1ccc2c(-c3ccncc3)cccc2n1-c1c(Cl)cccc1Cl` gave an inhibition in assay [6] of 58%.

In the case of `COc1cc(-c2ccccc2Cl)c2c(c1)N(c1c(Cl)cccc1Cl)C(=O)C(O)C2` (stereo unspecified), the IC50 in assay [1] (read-out: IC50) is 9 nM. On to `O=C(NCCOc1cc(-c2ccccc2Cl)c2ccc(=O)n(-c3c(Cl)cccc3Cl)c2c1)[C@@H]1CCCN1`, for which the IC50 in assay [1] (read-out: IC50) stood at 0.75 nM; in assay [3], 87 nM.

As for `C[C@H](N)C(=O)NCCOc1cc(-c2ccccc2Cl)c2ccc(=O)n(-c3c(Cl)cccc3Cl)c2c1`, the IC50 in assay [1] (read-out: IC50) came to 0.16 nM; in assay [3] it was 32 nM. For `C[C@@H](N)C(=O)NCCOc1cc(-c2ccccc2Cl)c2ccc(=O)n(-c3c(Cl)cccc3Cl)c2c1`, the results for the IC50 in assay [1] (read-out: IC50) and in assay [3] were 0.2 nM and 47 nM, respectively. Consider `CC(C)(N)C(=O)NCCOc1cc(-c2ccccc2Cl)c2ccc(=O)n(-c3c(Cl)cccc3Cl)c2c1`, for which the IC50 in assay [1] (read-out: IC50) came out at 0.12 nM; in assay [3] it was 28 nM. `O=c1c(O)cc2c(-c3ccccc3Cl)cc(O)cc2n1-c1c(Cl)cccc1Cl`: in assay [1] (read-out: IC50), the IC50 was 5 nM.

The values above are taken from ChEMBL document CHEMBL1144044, “Synthesis and biological activity of quinolinone and dihydroquinolinone p38 MAP kinase inhibitors” (Bioorg Med Chem Lett, 2008).
